Drawing on US20230139171A1 (SITA Information Networking Computing UK Limited, priority 2019, published 2023), this text covers IC50 for ten compounds.

Common to all, as to type: cell-based
For one assay, the target named is T1, human TLR8 (Homo sapiens, UniProt Q9NR97).
T1 construct: host or cells: HEK-Blue cells
T1 sequence (Q9NR97 27-1041): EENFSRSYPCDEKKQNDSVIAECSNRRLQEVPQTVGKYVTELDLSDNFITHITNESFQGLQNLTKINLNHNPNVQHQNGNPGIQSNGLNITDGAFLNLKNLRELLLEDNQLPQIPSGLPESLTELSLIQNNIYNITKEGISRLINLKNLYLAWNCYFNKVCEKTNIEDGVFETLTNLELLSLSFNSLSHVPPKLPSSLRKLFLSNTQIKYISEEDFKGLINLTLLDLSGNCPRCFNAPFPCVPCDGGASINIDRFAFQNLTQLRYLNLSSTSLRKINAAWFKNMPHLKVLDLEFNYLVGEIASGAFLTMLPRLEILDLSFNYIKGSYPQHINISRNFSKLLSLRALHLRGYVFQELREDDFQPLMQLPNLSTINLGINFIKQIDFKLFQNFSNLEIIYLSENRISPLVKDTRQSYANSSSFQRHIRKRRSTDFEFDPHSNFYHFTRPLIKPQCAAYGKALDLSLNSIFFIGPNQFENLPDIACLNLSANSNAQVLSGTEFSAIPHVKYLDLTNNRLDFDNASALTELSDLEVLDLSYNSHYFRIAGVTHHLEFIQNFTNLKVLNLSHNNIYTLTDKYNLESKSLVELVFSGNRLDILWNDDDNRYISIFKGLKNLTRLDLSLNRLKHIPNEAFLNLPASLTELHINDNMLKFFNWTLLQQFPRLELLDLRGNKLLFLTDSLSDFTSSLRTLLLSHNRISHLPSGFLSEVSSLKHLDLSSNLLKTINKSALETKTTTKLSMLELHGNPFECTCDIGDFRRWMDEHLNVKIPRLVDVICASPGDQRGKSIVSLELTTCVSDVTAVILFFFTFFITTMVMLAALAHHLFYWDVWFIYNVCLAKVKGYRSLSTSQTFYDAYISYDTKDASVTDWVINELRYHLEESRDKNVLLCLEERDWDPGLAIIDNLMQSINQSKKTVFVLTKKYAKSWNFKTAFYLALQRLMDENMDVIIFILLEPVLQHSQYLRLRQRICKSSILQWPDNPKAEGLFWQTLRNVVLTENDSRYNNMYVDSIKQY
The assay can be described thus: TLR8 inhibition reporter assay (HEK-Blue cells, SEAP reporter, R848 stimulation). To be noted: HEK-Blue cells overexpressing human TLR8, SEAP reporter, R848 15.9 μM; read-out: TLR8 IC50. The method, boiled down:
(§1)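 Agonists used: gardiquimod 7.5 μM (TLR7), R848 15.9 μM (TLR8), ODN2006 5 nM (TLR9), added after 30 min room-temperature compound pre-treatment (0.05 nM–50 μM) of receptor-overexpressing HEK-Blue cells. SEAP reporter (NF-κB/AP-1 driven) read after 22 h at 37 °C; inhibition scaled between agonist+DMSO and reference-inhibitor wells.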

The target of another assay is T2, human TLR9 (Homo sapiens, UniProt Q9NR96).
T2 construct: host or cells: HEK-Blue cells
T2 sequence (Q9NR96 26-1032): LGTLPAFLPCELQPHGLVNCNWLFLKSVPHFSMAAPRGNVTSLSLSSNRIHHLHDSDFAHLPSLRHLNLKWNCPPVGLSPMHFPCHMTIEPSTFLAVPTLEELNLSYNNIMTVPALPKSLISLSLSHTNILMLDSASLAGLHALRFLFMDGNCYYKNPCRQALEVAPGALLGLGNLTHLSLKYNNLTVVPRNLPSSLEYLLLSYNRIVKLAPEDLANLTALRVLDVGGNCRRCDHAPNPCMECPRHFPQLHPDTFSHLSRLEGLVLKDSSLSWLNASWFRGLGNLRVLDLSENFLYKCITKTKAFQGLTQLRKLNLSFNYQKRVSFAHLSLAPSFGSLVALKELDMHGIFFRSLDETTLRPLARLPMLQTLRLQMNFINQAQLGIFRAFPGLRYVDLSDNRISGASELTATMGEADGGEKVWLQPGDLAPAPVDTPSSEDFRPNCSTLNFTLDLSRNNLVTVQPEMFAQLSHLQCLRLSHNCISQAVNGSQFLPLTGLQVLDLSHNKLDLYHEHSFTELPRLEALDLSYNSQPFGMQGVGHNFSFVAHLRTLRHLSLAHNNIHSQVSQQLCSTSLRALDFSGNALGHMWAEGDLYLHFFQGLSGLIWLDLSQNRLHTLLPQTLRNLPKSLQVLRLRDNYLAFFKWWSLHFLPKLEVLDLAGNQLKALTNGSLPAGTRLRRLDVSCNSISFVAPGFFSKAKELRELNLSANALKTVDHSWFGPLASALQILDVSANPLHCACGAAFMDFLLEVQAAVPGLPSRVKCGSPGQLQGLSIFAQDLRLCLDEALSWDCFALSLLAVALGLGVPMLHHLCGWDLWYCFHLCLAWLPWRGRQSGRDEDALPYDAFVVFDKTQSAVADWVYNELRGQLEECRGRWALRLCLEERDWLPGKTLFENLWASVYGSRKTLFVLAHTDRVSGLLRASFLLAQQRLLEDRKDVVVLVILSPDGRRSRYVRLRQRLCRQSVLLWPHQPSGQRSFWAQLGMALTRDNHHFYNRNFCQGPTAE
The experiment in a line: TLR9 inhibition reporter assay (HEK-Blue cells, SEAP reporter, ODN2006 stimulation). Particulars: HEK-Blue cells overexpressing human TLR9, SEAP reporter, ODN2006 5 nM. The essentials:
as §1

The target in the next assay is T3, human TLR7 (Homo sapiens, UniProt Q9NYK1).
T3 construct: host or cells: HEK-Blue cells
T3 sequence (Q9NYK1 27-1049): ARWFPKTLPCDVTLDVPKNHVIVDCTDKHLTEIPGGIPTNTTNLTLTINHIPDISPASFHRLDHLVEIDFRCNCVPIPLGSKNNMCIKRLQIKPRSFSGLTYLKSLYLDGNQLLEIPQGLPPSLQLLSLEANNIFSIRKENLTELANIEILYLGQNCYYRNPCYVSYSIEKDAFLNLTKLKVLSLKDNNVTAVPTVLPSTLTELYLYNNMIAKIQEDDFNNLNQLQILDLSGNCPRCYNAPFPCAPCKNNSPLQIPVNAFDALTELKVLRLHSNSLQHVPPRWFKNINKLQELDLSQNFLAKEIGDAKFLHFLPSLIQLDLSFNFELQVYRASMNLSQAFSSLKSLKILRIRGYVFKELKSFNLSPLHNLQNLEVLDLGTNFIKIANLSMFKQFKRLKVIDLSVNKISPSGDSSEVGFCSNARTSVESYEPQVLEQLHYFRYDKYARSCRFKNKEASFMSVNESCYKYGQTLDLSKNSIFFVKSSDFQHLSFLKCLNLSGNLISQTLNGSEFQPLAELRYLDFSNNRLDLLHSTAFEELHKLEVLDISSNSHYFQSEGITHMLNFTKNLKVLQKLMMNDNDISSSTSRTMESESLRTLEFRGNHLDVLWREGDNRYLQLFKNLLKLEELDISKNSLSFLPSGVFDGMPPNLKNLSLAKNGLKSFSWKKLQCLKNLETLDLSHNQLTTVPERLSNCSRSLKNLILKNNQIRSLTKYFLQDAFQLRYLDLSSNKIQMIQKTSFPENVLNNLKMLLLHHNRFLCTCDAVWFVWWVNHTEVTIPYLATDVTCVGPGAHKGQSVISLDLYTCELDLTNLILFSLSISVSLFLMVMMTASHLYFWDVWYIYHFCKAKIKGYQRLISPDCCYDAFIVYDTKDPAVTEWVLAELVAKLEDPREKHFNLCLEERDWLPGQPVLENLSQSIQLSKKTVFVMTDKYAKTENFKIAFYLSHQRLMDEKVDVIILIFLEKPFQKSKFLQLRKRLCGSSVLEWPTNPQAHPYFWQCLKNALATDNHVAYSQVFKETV
The assay can be described thus: TLR7 inhibition reporter assay (HEK-Blue cells, SEAP reporter, gardiquimod stimulation). To be noted: HEK-Blue cells overexpressing human TLR7, SEAP reporter, gardiquimod 7.5 μM; read-out: TLR7 IC50. The essentials: as §1
(In general: In a reporter assay the amount or activity of a reporter protein is the signal.)

The IC50 is the point on the concentration scale where inhibition reaches its midpoint. For the compound `Cc1c(-c2[nH]c3sc(C4CCC(NC(C)C)CC4)nc3c2C(C)C)cn2ncnc2c1C` (single isomer, unassigned) [Example 194, 4-(5-(7,8-dimethyl-[1,2,4]triazolo[1,5-a]pyridin-6-yl)-6-isopropyl-4H-pyrrolo[3,2-d]thiazol-2-yl)-N-isopropylcyclohexan-1-amine], the IC50 was 0.37 nM at human TLR8, 9220 nM on human TLR9 and 0.9 nM on human TLR7.
As to `Cc1c(-c2[nH]c3sc(C4CCC(NC(C)C)CC4)nc3c2C(C)C)cn2ncnc2c1C` (single isomer, unassigned) [Example 195, 4-(5-(7,8-dimethyl-[1,2,4]triazolo[1,5-a]pyridin-6-yl)-6-isopropyl-4H-pyrrolo[3,2-d]thiazol-2-yl)-N-isopropylcyclohexan-1-amine], the half-inhibitory concentration (IC50) is 1.66 nM at human TLR8, 5500 nM at human TLR9 and 2.24 nM at human TLR7.
On the same counts, the results for `Cc1c(-c2[nH]c3sc(C4CCC(NCC(C)(C)O)CC4)nc3c2C(C)C)cn2ncnc2c1C` (single isomer, unassigned) [Example 196, 1-((4-(5-(7,8-dimethyl-[1,2,4]triazolo[1,5-a]pyridin-6-yl)-6-isopropyl-4H-pyrrolo[3,2-d]thiazol-2-yl)cyclohexyl)amino)-2-methylpropan-2-ol] are 0.17 nM, 12700 nM and 1.13 nM.
As for `Cc1c(-c2[nH]c3sc(C4CCC(NCC(C)(C)O)CC4)nc3c2C(C)C)cn2ncnc2c1C` (single isomer, unassigned) [Example 197, 1-((4-(5-(7,8-dimethyl-[1,2,4]triazolo[1,5-a]pyridin-6-yl)-6-isopropyl-4H-pyrrolo[3,2-d]thiazol-2-yl)cyclohexyl)amino)-2-methylpropan-2-ol], the figures for the IC50 on human TLR8, against human TLR9 and on human TLR7 were 2.08 nM, 13100 nM and 5.35 nM, respectively.
For `Cc1c(-c2[nH]c3sc(C4CCC(NCC(C)(C)C)CC4)nc3c2C(C)C)cn2ncnc2c1C` (single isomer, unassigned) [Example 199, 4-(5-(7,8-dimethyl-[1,2,4]triazolo[1,5-a]pyridin-6-yl)-6-isopropyl-4H-pyrrolo[3,2-d]thiazol-2-yl)-N-neopentylcyclohexan-1-amine], the half-maximal inhibitory concentration (IC50) on human TLR8 amounted to 2.19 nM; on human TLR9 it was 2950 nM; at human TLR7 it was 4.98 nM.
For `Cc1c(-c2[nH]c3sc(C4CCC(NC5CCOCC5)CC4)nc3c2C(C)C)cn2ncnc2c1C` (single isomer, unassigned) [Example 200, N-(4-(5-(7,8-dimethyl-[1,2,4]triazolo[1,5-a]pyridin-6-yl)-6-isopropyl-4H-pyrrolo[3,2-d]thiazol-2-yl)cyclohexyl)tetrahydro-2H-pyran-4-amine], the figures for the concentration for half-maximal inhibition (IC50) on human TLR8, against human TLR9 and at human TLR7 were 0.39 nM, 10100 nM and 0.92 nM, respectively.
On the same counts, the results for `Cc1c(-c2[nH]c3sc(C4CCC(NC5CCOCC5)CC4)nc3c2C(C)C)cn2ncnc2c1C` (single isomer, unassigned) [Example 201, N-(4-(5-(7,8-dimethyl-[1,2,4]triazolo[1,5-a]pyridin-6-yl)-6-isopropyl-4H-pyrrolo[3,2-d]thiazol-2-yl)cyclohexyl)tetrahydro-2H-pyran-4-amine] are 4.21 nM, 9250 nM and 6.66 nM.
On the same counts, the results for `Cc1c(-c2[nH]c3sc(C4CCC(NCC(=O)N(C)C)CC4)nc3c2C(C)C)cn2ncnc2c1C` (single isomer, unassigned) [Example 204, 2-((4-(5-(7,8-dimethyl-[1,2,4]triazolo[1,5-a]pyridin-6-yl)-6-isopropyl-4H-pyrrolo[3,2-d]thiazol-2-yl)cyclohexyl)amino)-N,N-dimethylacetamide] are 0.63 nM, 17800 nM and 1.5 nM.
`Cc1c(-c2[nH]c3sc(C4CCC(NCC(=O)N(C)C)CC4)nc3c2C(C)C)cn2ncnc2c1C` (single isomer, unassigned) [Example 205, 2-((4-(5-(7,8-dimethyl-[1,2,4]triazolo[1,5-a]pyridin-6-yl)-6-isopropyl-4H-pyrrolo[3,2-d]thiazol-2-yl)cyclohexyl)amino)-N,N-dimethylacetamide]: the half-inhibitory concentration (IC50) came out at 2.33 nM on human TLR8, 21500 nM at human TLR9 and 6.66 nM on human TLR7.
Taken in the same sequence, the figures for `CNC(=O)CNC1CCC(c2nc3c(C(C)C)c(-c4cn5ncnc5c(C)c4C)[nH]c3s2)CC1` (single isomer, unassigned) [Example 208, 2-((4-(5-(7,8-dimethyl-[1,2,4]triazolo[1,5-a]pyridin-6-yl)-6-isopropyl-4H-pyrrolo[3,2-d]thiazol-2-yl)cyclohexyl)amino)-N-methylacetamide] were 0.52 nM, 20000 nM and 1 nM.
